Laboratory results: article PMC7075522 (ACS infectious diseases, 2016)

What was measured:
[1] = tested on: DENV in BHK-21 and NIH3T3 cells; settings: cited from earlier work
[2] = tested on: sera of 24 SARS-positive patients; assay type: binding, human

| Substance | ADE of DENV [1] | Immunoreactivity with sera [2] |
| --- | --- | --- |
| CPFLKQNEPEDIDCW | blocked this ADE in a dose-dependent manner |  |
| LYQDVN [S597–602] |  | immunoreactive with the tested sera of 24 SARS-positive patients |
